# Laboratory results from patent publication US20040235932A1, “Ophthalmic pharmaceutical compositions” (priority 2001, published 2004).
# How the values were obtained:
# [1] = system: Dutch male colored rabbits; test: Activity to reduce intraocular pressure on continuous eye drop administration in rabbits; assay type: in vivo, rabbit; conditions: for Difference in intraocular pressure after the administration: test eye vs control eye, mean±S.E.; for time of maximum reduction in intraocular pressure after the administration: all determination days to the 57th day
# Description: KRG-3332 as prepared in Reference Example 2 was dissolved in physiological saline to prepare a 0.01% solution, which was used as test solution 1 (0.01% eye drop) in the following method for determining the activity to reduce intraocular pressure. […] For the administration of eye drop, each 50 ρL of the test solution and the control (physiological saline) was administered to one eye and the other eye respectively, twice a day (11:00 and 19:00), and the administration continued for up to 57 days. The corneal surfaces of the animals were anaesthetized with 0.4% oxybuprocaine hydrochloride eye drop to, and the intraocular pressure was determined at time points of 11:00 (before the administration), 13:00(2 hours after the administration), 15:00 (4 hours after the administration) and 19:00 (8 hours after the administration, immediately before the second administration) one day before the administration and thereafter every week using an air applanation ophthalmotonometer (ALCON JAPAN LTD.). Average (mean±S.E.) of the difference between the intraocular pressures of eyes administered with the test solution and the control as determined at each time point, and the relevant t-test results were estimated. KRG-3332 was dissolved in physiological saline to prepare a 0.1% solution, which was used as test solution 2 (0.1% eye drop) in the determination of the activity to reduce intraocular pressure in a similar manner to above (1). For the comparison, bunazosin hydrochloride was dissolved in physiological saline to prepare a 0.03% solution, which was used as test solution 3 (reference drug, 0.03% eye drop of bunazosin hydrochloride) in the determination of the activity to reduce intraocular pressure in a similar manner to above (1) and (2).
# [2] = system: patients suffering from ocular hypertension; conditions: cited from earlier work
structure (smiles),measurement,setting,value
"CCOc1ccccc1OCCN[C@H](C)Cc1cc(C(N)=O)c2c(ccn2CCCOC(=O)C(C)(C)C)c1.Cl [KRG-3332, (R)-3-[7-carbamoyl-5-[2-[[2-(2-ethoxyphenoxy)ethyl]amino]propyl]-1H-indol-1-yl]propyl pivalate hydrochloride]",development of drug resistance (change in activity to reduce intraocular pressure by continuous administration),[1]; 0.01% and 0.1% eye drops twice a day for up to 57 days,no development of drug resistance
same,Difference in intraocular pressure after the administration,"[1]; 0.01% eye drop, 1st day, 0 hours after the administration",0.050 ± 0.398 mmHg
same,Difference in intraocular pressure after the administration,"[1]; 0.01% eye drop, 1st day, 8 hours after the administration",−0.400 ± 0.392 mmHg
same,Difference in intraocular pressure after the administration,"[1]; 0.01% eye drop, 8th day, 0 hours after the administration",−0.200 ± 0.242 mmHg
same,Difference in intraocular pressure after the administration,"[1]; 0.01% eye drop, 15th day, 4 hours after the administration",−1.600 ± 0.882 mmHg
same,Difference in intraocular pressure after the administration,"[1]; 0.01% eye drop, 15th day, 8 hours after the administration",−0.350 ± 0.828 mmHg
same,Difference in intraocular pressure after the administration,"[1]; 0.01% eye drop, 22nd day, 0 hours after the administration",−0.850 ± 0.589 mmHg
same,Difference in intraocular pressure after the administration,"[1]; 0.01% eye drop, 22nd day, 8 hours after the administration",−0.550 ± 0.348 mmHg
same,Difference in intraocular pressure after the administration,"[1]; 0.01% eye drop, 29th day, 8 hours after the administration",−0.400 ± 0.392 mmHg
same,Difference in intraocular pressure after the administration,"[1]; 0.01% eye drop, 36th day, 0 hours after the administration",−0.500 ± 0.447 mmHg
same,Difference in intraocular pressure after the administration,"[1]; 0.01% eye drop, 36th day, 4 hours after the administration",−1.349 ± 0.831 mmHg
same,Difference in intraocular pressure after the administration,"[1]; 0.01% eye drop, 36th day, 8 hours after the administration",−1.250 ± 0.818 mmHg
same,Difference in intraocular pressure after the administration,"[1]; 0.01% eye drop, 43rd day, 0 hours after the administration",−0.150 ± 0.491 mmHg
same,Difference in intraocular pressure after the administration,"[1]; 0.01% eye drop, 43rd day, 8 hours after the administration",0.100 ± 0.376 mmHg
same,Difference in intraocular pressure after the administration,"[1]; 0.01% eye drop, 50th day, 0 hours after the administration",−0.400 ± 0.430 mmHg
same,Difference in intraocular pressure after the administration,"[1]; 0.01% eye drop, 50th day, 8 hours after the administration",−0.900 ± 0.551 mmHg
same,Difference in intraocular pressure after the administration,"[1]; 0.01% eye drop, 57th day, 0 hours after the administration",0.050 ± 0.366 mmHg
same,Difference in intraocular pressure after the administration,"[1]; 0.01% eye drop, 57th day, 8 hours after the administration",−0.150 ± 0.400 mmHg
same,time of maximum reduction in intraocular pressure after the administration,[1]; 0.01% eye drop,2 h
same,Difference in intraocular pressure after the administration,"[1]; 0.1% eye drop, 1st day, 0 hours after the administration",0.000 ± 0.285 mmHg
same,Difference in intraocular pressure after the administration,"[1]; 0.1% eye drop, 8th day, 0 hours after the administration",−1.050 ± 0.619 mmHg
same,Difference in intraocular pressure after the administration,"[1]; 0.1% eye drop, 15th day, 0 hours after the administration",−1.350 ± 0.944 mmHg
same,Difference in intraocular pressure after the administration,"[1]; 0.1% eye drop, 15th day, 8 hours after the administration",−1.700 ± 0.917 mmHg
same,Difference in intraocular pressure after the administration,"[1]; 0.1% eye drop, 36th day, 0 hours after the administration",−1.050 ± 0.878 mmHg
same,Difference in intraocular pressure after the administration,"[1]; 0.1% eye drop, 43rd day, 8 hours after the administration",−2.250 ± 0.862 mmHg
same,Difference in intraocular pressure after the administration,"[1]; 0.1% eye drop, 50th day, 0 hours after the administration",−0.600 ± 0.801 mmHg
same,Difference in intraocular pressure after the administration,"[1]; 0.1% eye drop, 50th day, 4 hours after the administration",−1.950 ± 0.756 mmHg
same,Difference in intraocular pressure after the administration,"[1]; 0.1% eye drop, 50th day, 8 hours after the administration",−1.150 ± 0.573 mmHg
same,Difference in intraocular pressure after the administration,"[1]; 0.1% eye drop, 57th day, 0 hours after the administration",−1.500 ± 0.822 mmHg
same,time of maximum reduction in intraocular pressure after the administration,[1]; 0.1% eye drop,2 h
"COC(=O)[C@H]1[C@H]2C[C@H]3c4[nH]c5ccccc5c4CCN3C[C@@H]2CC[C@@H]1O [corynanthine, methyl 17α-hydroxyyohimban-16β-carboxylate]",activity for reducing intraocular pressure,[2]; concentrations of 2 to 5% in eye drops,demonstrated Lo have an activity for reducing intraocular pressure
same,development of drug resistance,[2]; continued administration for a week,the continued administration thereof for a week developed drug resistance
